The term IC50 denotes the concentration that inhibits the measured activity by half. High values mean lower potency, low ones higher potency.

IC50 data for six compounds are collected here from ChEMBL document CHEMBL1144213, “Synthesis and antiproliferative activity of unnatural enantiomers of 7-epi-goniofufurone and crassalactone C” (Bioorg Med Chem Lett, 2008).

In test [1] the test system is HeLa. The experiment in a line: Cytotoxicity against human HeLa cells after 72 hrs by MTT assay. Format: functional, cell-based. (Tetrazolium dyes change colour on reduction, which living cells bring about.)
The subject of test [2] is Raji. The experiment in a line: Cytotoxicity against human Raji cells after 72 hrs by MTT assay. Format: functional, cell-based.
Test [3] deals with MRC5. The experiment in a line: Cytotoxicity against human MRC5 cells after 72 hrs by MTT assay. Format: cell-based. Conditions: MRC5, 72 h.
Test [4] has as its system Jurkat. The experiment in a line: Cytotoxicity against human Jurkat cells after 72 hrs by MTT assay. Format: functional, cell-based.
The test system of test [5] is HL-60. The experiment in a line: Cytotoxicity against human HL-60 cells after 72 hrs by MTT assay. Format: functional, cell-based. Conditions: HL-60, 72 h.

Consider `O=C(/C=C/c1ccccc1)O[C@@H](c1ccccc1)[C@@H]1O[C@H]2CC(=O)O[C@H]2[C@@H]1O` [CRASSALACTONE C (ENANTIOMERIC MIX)], for which the IC50 in test [1] was 1.18 µM; in test [2] it was 0.57 µM; in test [3], above 100 µM; in test [4], 15.7 µM; in test [5] it was 1.87 µM.

`COc1cccc2c1C(=O)c1c(O)c3c(c(O)c1C2=O)C[C@@](O)(C(=O)CO)C[C@@H]3O[C@H]1C[C@H](N)[C@H](O)[C@H](C)O1` [DOXORUBICIN]: the IC50 in test [4] is 0.03 µM; in test [5], 0.92 µM.

With `O=C1C[C@H]2O[C@H]([C@@H](O)c3ccccc3)[C@H](O)[C@H]2O1`, the IC50 in test [1] is 0.89 µM; in test [2] it was 1.25 µM; in test [3] it was above 100 µM; in test [4], 18.6 µM; in test [5] it was 22 µM.

Consider `O=C(/C=C/c1ccccc1)O[C@H](c1ccccc1)[C@H]1O[C@@H]2CC(=O)O[C@@H]2[C@H]1O` [(+)-CRASSALACTONE C], for which the IC50 in test [1] was 11.2 µM; in test [2], 15.5 µM; in test [3], above 100 µM; in test [4], 25.4 µM; in test [5], above 100 µM.

Turning to `O=C1C[C@@H]2O[C@@H]3[C@@H](O[C@H]3c3ccccc3)[C@@H]2O1`, the 50% inhibitory concentration (IC50) in test [1] was 0.97 µM; in test [2], 0.45 µM; in test [3], above 100 µM; in test [4], 28.4 µM; in test [5], 0.025 µM.

On to `O=C1C[C@@H]2O[C@@H]([C@H](O)c3ccccc3)[C@@H](O)[C@@H]2O1`, for which the half-inhibitory concentration (IC50) was 4.38 µM in test [1]; above 100 µM in test [2]; above 100 µM in test [3]; 0.05 µM in test [4]; 13.9 µM in test [5].
